These are literature values, as cited in US11672781B2, “Metaxalone formulations” (PRANA BIOSCIENCES INC, priority 2018, dated 2023).

For this series the following is noted: independent of pH across the physiological pH range found in the GI tract.

In the case of `Cc1cc(C)cc(OCC2CNC(=O)O2)c1` (stereo not shown) [metaxalone, 5-[(3,5-dimethylphenoxy)methyl]-2-oxazolidinone], the Aqueous solubility result is reported as “less than 50 ug/ml”.
